Molecular target: T1, Nuclear receptor ROR-gamma (Homo sapiens, UniProt P51449)
T1 sequence (P51449 whole entry): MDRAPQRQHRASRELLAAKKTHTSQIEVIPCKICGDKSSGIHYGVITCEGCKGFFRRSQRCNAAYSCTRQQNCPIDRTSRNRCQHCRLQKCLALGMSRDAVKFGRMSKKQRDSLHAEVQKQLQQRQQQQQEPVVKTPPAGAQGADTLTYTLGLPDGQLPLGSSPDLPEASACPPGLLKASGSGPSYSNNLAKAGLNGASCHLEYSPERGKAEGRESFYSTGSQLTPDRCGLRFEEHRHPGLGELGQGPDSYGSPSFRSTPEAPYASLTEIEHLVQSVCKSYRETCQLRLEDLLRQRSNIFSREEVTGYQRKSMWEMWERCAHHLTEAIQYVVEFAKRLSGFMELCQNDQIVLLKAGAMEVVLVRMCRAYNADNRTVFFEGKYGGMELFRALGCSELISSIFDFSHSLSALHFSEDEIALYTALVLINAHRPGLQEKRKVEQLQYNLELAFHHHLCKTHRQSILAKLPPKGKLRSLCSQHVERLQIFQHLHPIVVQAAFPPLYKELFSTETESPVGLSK
Assay: RORgammat 5xRORE Assay in Jurkat Cells (Assay 2) : Compounds of the present invention were tested for RORγ inverse agonist activity in a cell-based, transcriptional activity assay. […] (Promega, Cat. # N1021) using KpnI and HindIII restriction sites. […] Luciferase activity in the conditioned supernatants was determined with NanoGlo® assay reagents (Promega, Cat. # N1130).

- IC50: 100 to 1000 nM
SMILES: CCS(=O)(=O)c1ccc(CNC(=O)c2cnc3c(c2)C(=O)N(Cc2ccc(Cl)cc2)[C@H]3C(C)C)cc1
